# Measurements published in patent publication US11013235B2 (priority 2015, dated 2021).
# Read-outs that look alike come from different tables or passages of the source.
# Assays:
# Assay type in all cases: in vivo
# [1] = system: Radopholus similis; test: Nematode control, nodules per plant: Radopholus similis; conditions: 1 μM foliar application every 5 days, evaluation 35 days after, control 45
# Protocol: (§1) The solutions of the compounds were prepared in ethanol and diluted in water, up to a concentration of 1 μM for a foliar application. Applications were conducted every 5 days, spraying only the leafs with each compound. Ten plants were used for each treatment and the final evaluation was performed 35 days after, by quantifying the number of nodules per plant.
# [2] = system: Phytophthora parasitica; test: Control of Phytophthora parasitica disease in tobacco (Pp-Nt); conditions: 1 μM spraying every 24 hours for one week, water control 91
# Protocol: (§2) In order to compare the effect of the compounds of formula I to V on the control of diseases in different plants, experiments were conducted in tobacco, tomato and Arabidopsis thaliana plants inoculated with Phytophthora parasitica, Rhizoctonia solani, Alternaria solani, Nocardia sp and Botrytis cinerea, respectively. The compounds were applied by spraying, at a concentration of 1 μM, every 24 hours for one week. The plant mortality rate was determined for the disease produced by Phytophthora parasitica, Rhizoctonia solani and Nocardia sp, while the percentage of leaves with symptoms was determined for the infection by Alternaria solani. In the case of plants affected by Botrytis cinerea, the lesion diameter was measured. […] Each treatment included fifty plants. As control, plants treated with water were studied. The plants of each treatment were previously inoculated with the indicated pathogens, according to different inoculation protocols (Frontiers in Plant Science 3: 268, 1-6, 2012), and later they were treated with the compounds.
# [3] = system: Rhizoctonia solani; test: Control of Rhizoctonia solani disease in tomato (Rs-SI); conditions: 1 μM spraying every 24 hours for one week, water control 96
# Protocol: as §2
# [4] = system: Botrytis cinerea; test: Control of Botrytis cinerea disease in tobacco (Bc-Nt); conditions: 1 μM spraying every 24 hours for one week, water control 6.7
# Protocol: as §2
# [5] = system: Rhizoctonia solani; test: Control of Rhizoctonia solani disease in tobacco (Rs-Nt); conditions: 1 μM spraying every 24 hours for one week, water control 87
# Protocol: as §2
# [6] = system: Botrytis cinerea; test: Control of Botrytis cinerea disease in Arabidopsis (Bc-At); conditions: 1 μM spraying every 24 hours for one week, water control 8.7
# Protocol: as §2
# [7] = system: Alternaria solani; test: Control of Alternaria solani disease in tomato (As-SI); conditions: 1 μM spraying every 24 hours for one week, water control 68
# Protocol: as §2
# [8] = system: Botrytis cinerea; test: Control of Botrytis cinerea disease in tomato (Bc-SI); conditions: 1 μM spraying every 24 hours for one week, water control 7.4
# Protocol: as §2
# [9] = system: Candidatus 'Liberibacter asiaticus'; conditions: spraying every 15 days, 12 months after treatment, Citrus sinensis with HLB
# [10] = system: Nocardia sp; test: Control of Nocardia sp disease in tobacco (N-Nt); conditions: 1 μM spraying every 24 hours for one week, water control 58
# Protocol: as §2
# [11] = system: Meloidogyne incognita; test: Nematode control, nodules per plant: Meloidogyne incognita; conditions: 1 μM foliar application every 5 days, evaluation 35 days after, control 34
# Protocol: as §1
# [12] = system: Pratylenchus coffeae; test: Nematode control, nodules per plant: Pratylenchus coffeae; conditions: 1 μM foliar application every 5 days, evaluation 35 days after, control 42
# Protocol: as §1
Structure (SMILES),Rs: number of nodules per plant [1],Pp-Nt: percentage of mortality [2] [%],Rs-SI: percentage of mortality [3] [%],Bc-Nt: mean of the diameter of the lesion [4] [mm],Rs-Nt: percentage of mortality [5] [%],Bc-At: mean of the diameter of the lesion [6] [mm],As-SI: percentage of leaves with the disease symptoms [7] [%],Bc-SI: mean of the diameter of the lesion [8] [mm],Titers of the bacterium ([9]; 0.001 μM) [copies per reaction],Titers of the bacterium ([9]; 0.01 μM) [copies per reaction],Titers of the bacterium ([9]; 1 μM) [copies per reaction],Titers of the bacterium ([9]; 5 μM) [copies per reaction],Titers of the bacterium ([9]; 10 μM) [copies per reaction],N-Nt: percentage of mortality [10] [%],Mi: number of nodules per plant [11],Pc: number of nodules per plant [12]
"O=C(Cc1cc2c(oc1=O)C=CC1C(c3ccccc3)=COC21)NCC(O)CO (stereo not shown) [IIB, N-(2,3-dihydroxypropyl)-2-{11-oxo-5-phenyl-3,10-dioxatricyclo[7.4.0.0^{2,6}]trideca-1(9),4,7,12-tetraen-12-yl}acetamide]",2,2,2,1.5,3,1.5,2,2.5,432,17,2,43,8654,1,3,14
"O=C(Cc1cc2c(oc1=O)C=CC1C(C3CCCCC3)=COC21)NCC(O)CO (stereo not shown) [IIC, 2-{5-cyclohexyl-11-oxo-3,10-dioxatricyclo[7.4.0.0^{2,6}]trideca-1(9),4,7,12-tetraen-12-yl}-N-(2,3-dihydroxypropyl)acetamide]",18,1,2,1.5,4,2.4,3,0.8,123,25,2,23,4562,2,4,2
"O=C(Cc1cc2c(oc1=O)C=CC1C(C3CCCC3)=COC21)NCC(O)CO (stereo not shown) [IID, 2-{5-cyclopentyl-11-oxo-3,10-dioxatricyclo[7.4.0.0^{2,6}]trideca-1(9),4,7,12-tetraen-12-yl}-N-(2,3-dihydroxypropyl)acetamide]",0,0,2,0.9,0,0.7,8,1.2,587,12,2,87,1351,1,0,17
"O=C(Cc1cc2c(oc1=O)C=CC1C(c3ccc4ccccc4c3)=COC21)NCC(O)CO (stereo not shown) [IIE, N-(2,3-dihydroxypropyl)-2-[5-(naphthalen-2-yl)-11-oxo-3,10-dioxatricyclo[7.4.0.0^{2,6}]trideca-1(9),4,7,12-tetraen-12-yl]acetamide]",0,0,0,0.3,0,1.2,7,0.8,985,1,5,98,2547,0,0,0
